Where a name gives a salt, the structure may show the parent alone.
Columns and labels:
[1] = target: T1, human neutrophil elastase (Homo sapiens, UniProt P08246); experiment: Neutrophil Elastase activity assay (fluorogenic MEOSUC-Ala-Ala-Pro-Val-AMC substrate); type: biochemical; parameters: key to Neutrophil Elastase IC50 / Neutrophil Elastase IC90: - = inactive
T1 construct: purchased Merck Millipore 324681
T1 sequence (P08246 30-247 limits assumed): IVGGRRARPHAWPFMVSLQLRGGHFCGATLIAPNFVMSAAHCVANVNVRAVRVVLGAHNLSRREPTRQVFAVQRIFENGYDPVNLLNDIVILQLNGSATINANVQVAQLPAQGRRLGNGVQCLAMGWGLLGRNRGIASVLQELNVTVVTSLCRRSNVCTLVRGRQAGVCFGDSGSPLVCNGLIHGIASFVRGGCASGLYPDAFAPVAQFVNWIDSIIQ

[2] = target: recombinant human TMPRSS2 enzyme (CusaBio #YP023924HU) (human) (UniProt O15393); experiment: cell-based or functional assay
[3] = 15 min preincubation at 37 °C, read after 5 minutes

Sequence of recombinant human TMPRSS2 enzyme (CusaBio #YP023924HU) (human) (O15393 106-492 limits assumed): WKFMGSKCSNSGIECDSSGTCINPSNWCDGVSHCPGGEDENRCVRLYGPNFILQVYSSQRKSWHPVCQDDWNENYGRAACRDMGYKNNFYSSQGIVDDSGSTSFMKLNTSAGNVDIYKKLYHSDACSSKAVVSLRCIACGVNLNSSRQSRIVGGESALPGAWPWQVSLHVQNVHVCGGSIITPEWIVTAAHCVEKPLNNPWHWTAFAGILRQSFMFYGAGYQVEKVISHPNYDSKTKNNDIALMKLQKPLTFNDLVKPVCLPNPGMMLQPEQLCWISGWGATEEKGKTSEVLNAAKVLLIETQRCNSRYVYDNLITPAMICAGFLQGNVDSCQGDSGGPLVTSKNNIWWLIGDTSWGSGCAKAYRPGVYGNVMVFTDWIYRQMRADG

| Molecule | Neutrophil Elastase IC50 [1, 3] | Neutrophil Elastase IC90 [1, 3] | inhibition of neutrophil elastase activity ([1]; result in words) | TMPRSS2 IC50 (fluorogenic substrate enzyme activity assay) [2] |
| --- | --- | --- | --- | --- |
| CN(C)C(=O)COC(=O)Cc1ccc(OC(=O)c2ccc(NC(=N)N)cc2)cc1 [Camostat mesylate] | - | - | did not inhibit |  |
| NIBSC Standard Alpha-1-Antitrypsin, plasma derived (1st International standard) (#05/162 NIBSC) (from UniProt P01009 25-418) |  |  |  | 51.8 nM |
| Prolastin (Grifols), human plasma-derived A1AT formulation (from UniProt P01009 25-418) |  |  |  | 79 nM |

— patent EP4480960A1, “A R[…] ALPHA-1 ANTITRYPSIN GLYCOPROTEIN” (AATEC Medical GmbH, priority 2023, dated 2024)
